Patent publication US6531465B1 (priority 1995, dated 2003)

How the values were obtained:
[1] = tested on: Pseudomonas aeruginosa strain 27853; test: Agar Dilution Test (NCCLS), Pseudomonas aeruginosa; format: cell-based
From the text: In particular, the active compounds of the invention show antimicrobial, e.g. antibacterial, activity against gram negative and gram positive bacteria such as Pseudomonas, e.g. Pseudomonas aeruginosa, Pseudomonas fluorescens; Enterobacter, e.g. Enterobacter cloacae; Enterococcus, e.g. Enterococcus faecalis; Moraxella, e.g. Moraxella catarrhalis; Haemophilus, e.g. Haemophilus influenza; Klebsiella, e.g. Klebsiella edwardsii, Klebsiella pneumoniae; Streptococcus, e.g. Streptococcus pneumoniae, Streptococcus durans, Streptococcus faecium, Streptococcus pyogenes; Staphylococcus, e.g. Staphylococcus aureus, Staphylococcus pyogenes; Escherichia, e.g. Escherichia coli; and Proteus, e.g. Proteus mirabilis in vitro in the Agar Dilution Test according to National Commitee for Clinical Laboratory Standards (NCCLS) 1993, Document M7-A3Vol.13, No. 25: “Methods for dilution Antimicrobial Susceptibility Tests for Bacteria that Grow Aerobically—Third Edition, Approved Standard” and in vivo in the septikaemic mouse model. […]
It has, for example, been determined that the MHK (μg/ml) of the compound of Example 139 against, for example Enterococcus faecalis strains ATTC 29212 or ATCC 51299, is of ca. 0.08 to 0.25; ainst Staphylococcus aureus strains ATCC 29213 or ATCC 9144 is of ca. 0.2 to 0.4 and against Pseudomonas aeruginosa strain 27853 is ca. 0.8.

[2] = tested on: Streptococcus pneumoniae, strain ATCC 49619; test: Agar Dilution Test (NCCLS), Streptococcus pneumoniae; format: cell-based; conditions: Example 139 tested in form of the trihydrochloride
From the text: In particular, the active compounds of the invention show antimicrobial, e.g. antibacterial, activity against gram negative and gram positive bacteria such as Pseudomonas, e.g. Pseudomonas aeruginosa, Pseudomonas fluorescens; Enterobacter, e.g. Enterobacter cloacae; Enterococcus, e.g. Enterococcus faecalis; Moraxella, e.g. Moraxella catarrhalis; Haemophilus, e.g. Haemophilus influenza; Klebsiella, e.g. Klebsiella edwardsii, Klebsiella pneumoniae; Streptococcus, e.g. Streptococcus pneumoniae, Streptococcus durans, Streptococcus faecium, Streptococcus pyogenes; Staphylococcus, e.g. Staphylococcus aureus, Staphylococcus pyogenes; Escherichia, e.g. Escherichia coli; and Proteus, e.g. Proteus mirabilis in vitro in the Agar Dilution Test according to National Commitee for Clinical Laboratory Standards (NCCLS) 1993, Document M7-A3Vol.13, No. 25: “Methods for dilution Antimicrobial Susceptibility Tests for Bacteria that Grow Aerobically—Third Edition, Approved Standard” and in vivo in the septikaemic mouse model. The active compounds of the invention show activity in the mouse when administerd at dosages from about 0.05 to 50 mg/kg body weight (ED50 values).The active compounds show an MHK(μg/ml) in the Agar Dilution Test from about 0.005 to ca. 50. The active compounds of the invention show an surprising overall activity spectrum.

Compound: 7-[[(5-Amino-1,2,4-thiadiazol-3-yl)-(Z)-(fluormethoxyimino)acetyl]amino]-3-[[(piperazinoiminomethyl)hydrazono]methyl]-3-cephem-4-carboxylic acid [Example 139]
- MHK [1]: ca. 0.8 μg/ml
- MHK [2]: ca. 0.01 μg/ml

Compound: CO/N=C(\C(=O)N[C@@H]1C(=O)N2C(C(=O)O)=C(CSc3nc(=O)c(=O)[nH]n3C)CS[C@H]12)c1csc(N)n1 [ceftriaxone, reference compound]
- MHK [2]: ca. 0.02 μg/ml
